Where “and” joins values, the source holds several entries; their conditions need not be identical. Equal entries are not always repeated.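 Compound exposure: 48 hours, 5 concentrations, 96-well plates. Abbreviation: GI50, concentration required for 50% inhibition of growth. TGI: concentration producing complete growth inhibition.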

Holding throughout (assay): NCI anticancer screen, dose series, 48 h
Test [1] relates to A549 NSCLC.
Test [2] deals with HOP-62 NSCLC.
The subject of test [3] is OVCAR-3 ovarian.
The test system of test [4] is COLO 205 colon.
Test [5] has as its system 786-0 renal.
The test system of test [6] is SNB-75 CNS.
In test [7] the test system is SK-MEL-28 melanoma.
Test [8] concerns IGROV1 ovarian.
The test system of test [9] is SK-MEL-2 melanoma.
For test [10], the system named is BT-549 breast.

Consider `O=C1NC2(C=Cc3c(ccc4ccccc34)O2)Oc2ccccc21` (stereo unspecified), for which the TGI in test [1] was above 100 µM; in test [2], above 100 µM; in test [3] it was 59.8 µM; in test [4], 42.5 µM; in [5], above 100 µM; in test [6] it was 61.4 µM. In addition, the TGI in test [7] was above 100 µM; in [8] it was above 100 µM; in test [9] it was 56.5 µM.

As to `Cc1ccc2c(=O)c(-c3n[nH]c(=S)s3)c[nH]c2n1`, the TGI in test [1], in test [2], in test [3], in test [4], in test [5] and in test [7] was above 100 µM throughout. Besides, the TGI in [8], in test [10] and in [9] was above 100 µM in each case.

`COC[C@@H](Cc1ccc(OC)c(OC)c1)[C@@H](COC)Cc1ccc(OC)c(OC)c1`: the TGI in [1], in test [3], in [4], in test [6], in [7] and in test [8] was above 100 µM in each case. The compound further returned a TGI in test [9] above 100 µM.

Regarding `CC1(C)c2ccccc2C(O)C12CCC(=O)CC2` (stereo unspecified), the TGI in test [1] is 93.9 µM; in [2], above 100 µM; in [3] it was above 100 µM; in [4], above 100 µM; in test [5], above 100 µM; in test [7], above 100 µM. The TGI in test [8] and in test [9] was above 100 µM throughout.

For the compound `COP(C)(=O)C(Cc1c[nH]c2ccccc12)NC(=O)OCc1ccccc1` (stereo unspecified), the TGI in test [1], in test [2], in test [3], in [4], in test [5] and in test [7] was above 100 µM each time. In addition, the TGI in test [8], in [10] and in test [9] was above 100 µM throughout.

As for `Cc1sc2nc3n(c(=O)c2c1C)N=C(c1ccc([N+](=O)[O-])cc1)CS3`, the TGI in test [1], in test [2], in [3], in test [4], in test [5] and in test [6] was above 100 µM in each case. Further, the TGI in test [7] and in test [10] was above 100 µM throughout.

Consider `C[N+](C)(N)c1nc(N)c(C#N)c(C#N)c1C#N`, for which the TGI in [1], in test [2], in [3], in test [4], in test [6] and in test [7] was above 10 µM in each case. Also, the TGI in test [8] and in [9] was above 10 µM throughout.

Regarding `O=C1N[C@@H](COc2ccc(C=Nc3ccc(CCc4ccc(N=Cc5ccc(OC[C@@H]6COC(=O)N6)cc5)cc4)cc3)cc2)CO1`, the TGI in test [1], in [2], in [3], in test [4], in [5] and in [7] was above 100 µM throughout. Moreover, the TGI in [8] and in test [9] was above 100 µM throughout.

`CC(C)N(C(C)C)P(OCCC#N)OC1CC(n2cnc3c(=O)[nH]cnc32)OC1COC(=O)NCCCCCCNC(=O)OC(C)(C)c1ccc(-c2ccccc2)cc1` (stereo unspecified): the TGI in test [1] is above 100 µM; in [2], 44.2 µM; in [4], 31.2 µM; in test [5] it was 54.7 µM; in [6], 53.7 µM; in [7], 57 µM. The TGI in test [8] is 38.4 µM; in test [9] it was above 100 µM.

Take `COC(=O)C1C2CC3C(OC(=O)C31)C2OC(=O)[C@](OC)(c1ccccc1)C(F)(F)F` (stereo partly specified): the TGI in test [1], in test [2], in test [3], in test [4], in test [5] and in test [6] was above 100 µM throughout. Also, the TGI in [7], in test [8] and in test [9] was above 100 µM in each case.

Regarding `CCN(CC)CCNc1ccc2ncn3c4cc(=O)ccc4c(O)c1c23`, the TGI turned out to be 12.1 µM in [1]; 17.9 µM in [2]; 6.36 µM in test [3]; 16.6 µM in test [4]; 14.9 µM in test [5]; 21.6 µM in [6]. Also, the TGI was determined as 16.9 µM in [7], 24.3 µM in [8] and 21.7 µM in [9].

Take `COc1ccccc1N=C1SCCN1C(=S)Nc1ccc(S(=O)(=O)/N=C/N(C)C)cc1`: the TGI in test [1] was above 100 µM; in test [2], above 100 µM; in test [3] it was above 100 µM; in test [4], above 100 µM; in test [5], above 100 µM; in test [6], 98.4 µM. Moreover, the TGI in test [7] is above 100 µM; in test [10], 49.8 µM.

As for `c1ccc(C2[C@@H]3CCCc4ccccc4C3=NN2c2ccccc2)cc1` (stereo partly specified), the TGI in test [1], in test [2], in [3], in test [4], in test [5] and in test [7] was above 100 µM in each case. For the same compound, the TGI in test [8] was above 100 µM.

On to `C=CCC(SC)C1=C(C)C(=O)c2ccccc21` (stereo unspecified), for which the TGI in [1], in test [2], in [3], in [5], in test [7] and in test [8] was above 10 µM throughout. Also, the TGI in test [10] and in [9] was above 10 µM in each case.

For `CCCCCCCCCCSCC(CO)NC(=O)/C=C/c1c(C)[nH]c(=O)[nH]c1=O` (stereo unspecified), in test [1], the GI50 is above 44.4 µM. Further, the TGI in [1] is above 50 µM; in test [2], > 31.1 µM and 31.2 µM; in test [3] it was 3.05 µM and 9.12 µM; in test [4] it was 8.39 µM and 17.6 µM; in test [6] it was 12.9 µM and 18.1 µM; in test [7] it was above 50 µM. The TGI in test [8] is above 50 µM; in test [9], 14.3 µM and 5.19 µM.

As to `COc1ccc(C2C(Cl)C(=O)N2NC(=O)Cc2ccccc2)cc1OC` (stereo unspecified), the TGI in [1], in test [2], in test [3], in test [4], in [5] and in [6] was above 100 µM in each case. Also, the TGI in test [7], in [8] and in [9] was above 100 µM in each case.

Regarding `O=C1C[C@H](c2ccc(O)c(O)c2)Oc2cc(O)cc(O)c21`, the TGI in [1], in test [2], in test [3], in test [4], in test [5] and in test [6] was above 100 µM each time. For the same compound, the TGI in test [7], in [8] and in [9] was above 100 µM in each case.

On to `CC1CC[C@@]2(OC1)OC1C[C@H]3[C@@H]4CCC5CC(O)CC[C@]5(C)[C@H]4C/C(=N\N(C)C)[C@]3(C)C1[C@@H]2C` (stereo partly specified), for which the TGI in test [1] is above 100 µM; in test [2], 54.7 µM; in test [3] it was 38.6 µM; in [4], 45 µM; in test [5] it was 49.8 µM; in test [7] it was above 100 µM. The figures for the TGI in test [8], in [10] and in test [9] were above 100 µM, 83.5 µM and 45.6 µM, respectively.

With `CC(=O)n1ccc2c(Cl)ncnc21`, the TGI in test [1], in test [2], in [3], in test [4], in [5] and in test [6] was above 100 µM each time. Also, the TGI in [7], in test [8] and in [9] was above 100 µM in each case.

Consider `N=C(c1cccs1)C1(N2CCCCC2)CCCCC1`, for which the TGI in test [1] is 60.2 µM; in test [2] it was 47.8 µM; in test [3], 30.3 µM; in test [5], above 100 µM; in test [8] it was 39.6 µM; in test [10], 41.9 µM. In test [9], this compound displayed a TGI of 31.3 µM.

Consider `CN(C)CCNc1nc2c(no[n+]2[O-])c2ccccc12`, for which the TGI in test [1] was 33.5 µM; in test [2], 34.9 µM; in test [3], 71.7 µM; in test [4] it was 66.7 µM; in test [5] it was 99 µM; in [6], 52.4 µM. Also, the TGI was above 100 µM in test [7], 53 µM in test [8] and 40.4 µM in test [9].

Regarding `OC1c2ccccc2C(O)C2OC12` (stereo unspecified), the TGI in test [1], in test [2], in test [3], in [4], in test [5] and in [7] was above 100 µM in each case. The TGI in test [8], in test [10] and in test [9] was above 100 µM in each case.

`O=P1(c2ccccc2)C2=CCC=CC2C(c2ccccc2)N1Cc1ccccc1` (stereo unspecified): the TGI in [1] was found to be 32.3 µM; in test [2], 37.6 µM; in [4], 29 µM; in test [5], 29.4 µM; in test [8], 32.9 µM; in test [10] it was 31.6 µM. Further, the TGI in test [9] stood at 29.9 µM.

`CC(=O)N(CN1C(=O)CCC1C(=O)O)c1ccccc1Cl` (stereo unspecified): the TGI in [1], in test [2], in [3], in test [4], in test [5] and in test [6] was above 100 µM each time. For the same compound, the TGI in test [7], in [8] and in test [9] was above 100 µM in each case.

As for `CC(=O)O[C@H]1CC[C@H]2[C@@H]3CCC(C(C)=O)[C@H](C(=O)O)[C@H]3CC[C@]12C` (stereo partly specified), the TGI in [1], in test [2], in [3], in [4], in [7] and in test [8] was above 100 µM in each case. Also, the TGI in [10] and in test [9] was above 100 µM throughout.

In the case of `CC(C)c1cccc(C(C)C)c1OS(=O)(=O)NC(=O)OC(C(F)(F)F)C(F)(F)F`, the TGI in [1] is above 100 µM; in test [2] it was 91.3 µM; in test [4], above 100 µM; in [7] it was above 100 µM; in test [8] it was above 100 µM; in test [10], above 100 µM. This compound also showed a TGI in test [9] above 100 µM.

Consider `CC[C@H](C)C1=C(OC(C)=O)[N@+]2([O-])Oc3ccc(-c4c(OC(C)=O)c(OC(C)=O)c(-c5ccc(OC(C)=O)cc5)c(OC(C)=O)c4OC(C)=O)cc3O[C@]2([C@@H](C)CC)C(=O)N1OC(C)=O`, for which the TGI was 41.6 µM in [1]; 23.4 µM in test [3]; 15.8 µM in [4]; 33.8 µM in test [5]; 39.5 µM in [6]; above 50 µM in test [7]. Moreover, the figures for the TGI in test [8] and in test [9] were 27.6 µM and 24.1 µM, respectively.

Take `c1ccc(CCn2cncn2)cc1`: the TGI in [1], in [2], in [3], in test [4], in test [6] and in test [7] was above 100 µM in each case. In test [8], this compound gave a TGI above 100 µM.

With `C=CC1(c2ccc(OC)cc2)OCCCO1`, the TGI in [1], in [2], in test [3], in [4], in test [5] and in [6] was above 100 µM throughout. In addition, the TGI in test [7], in [8] and in [9] was above 100 µM throughout.

On to `O=C(NN=C1CCCCC1)NN=C1CCCCC1`, for which the TGI in test [2], in [3], in test [4], in [6], in test [7] and in test [8] was above 100 µM in each case. The TGI in test [10] is above 100 µM.

Consider `OC(CN1CCCCC1)c1ccc(/C=C/c2ccc(Cl)cc2)cc1` (stereo unspecified), for which the TGI in test [1] is above 100 µM; in [2], above 100 µM; in test [3], above 100 µM; in [4], 36 µM; in test [5], above 100 µM; in test [7], 42.6 µM. Besides, the values for the TGI in test [8], in test [10] and in [9] were 66.5 µM, above 100 µM and 50.9 µM, respectively.
